According to patent US20210087238A1, “CELL PENETRATING PEPTIDES AND RELATED COMPOSITIONS AND METHODS” (Phylogica Limited, priority 2017, published 2021):

How the values were obtained:
[1] = test system: CHO-K1 cells stably-expressing EGFR receptor; assay: Bouganin assay: FPP_SpyT conjugated to EGFRAffibody_Bouganin_SpyC toxin, matched CHO-K1 lines (±hEGFR); format: cell-based; settings: 100 nM toxin; 48 h; CHO-K1 EGFR vs CHO-K1
Experimental: FIG. 9 FPP compatibility with receptor binding delivery (RBD)-mediated delivery and half-life extension by PASylation. (A) a plot showing percent viability of CHO-K1 cells stably-expressing EGFR receptor or (B) CHO-K1 cells were treated with FPP_SpyT conjugated to EGFRAffybody_Bouganin SpyC (EGRFAffbd_Boug_SpyC) toxin. After 48 h incubation cell viability was assessed by resazurin reduction potential. […] Results are representative of 3 independent experiments. Error bars represent standard deviation from the mean of duplicate samples. **P<0.01, ***P<0.001 by one-way ANOVA with Dunnett's multiple comparison test. (C) T47D cells were treated with FPP_PAP_linker_SpyT with and without conjugation to PAS_SpyC recombinant protein. […] Linkers are Cathepsin B FKFL cleavage motif (BF), Cathepsin B Valine-Citrulline cleavage motif (Ba) and Furin RKKR cleavage motif (Fur). Results are representative of 2 independent experiments. Error bars represent standard deviation from the mean of duplicate samples.
All assays followed manufacturer's instructions.

CHO-K1 cells = assay: β-Lactamase (BLA) bioassay, CCF2-AM cleavage by flow cytometry; format: cell-based; settings: SpyC-BLA/CPP-SpyT conjugates; comparator TAT-SpyTag conjugate
Experimental: CHO-K1 cells (seeded at 1×10^5 cells/well in 24-well plates) were incubated with purified SpyC_BLA (SEQ ID NO:90) and SpyC_BLA_FPP1.1 (SEQ ID NO:91) proteins at […]/5% CO2 for 2 hours. Cells were washed, detached by 5 mins incubation with trypsin, washed, loaded with the β-lactamase substrate CCF2-AM and analysed by Flow Cytometry; intracellular β-lactamase activity caused an emission shift from 510 nm to 450 nm. The percentages of β-lactamase positive cells for each sample were graphed against the concentration of protein added to the cells. […]
β-Lactamase is a bacterial enzyme that catalyses the opening of β-lactam rings. […] To address this need, β-Lactamase was expressed as C-terminal SpyC fusion, making SpyC-BLA (SEQ ID NO:90). […]
CCF2-AM (Thermofisher Scientific, Australia) is a Fluorescence Resonance Energy Transfer (FRET) substrate that is enzymatically cleaved by β-Lactamase. […] In the presence of β-Lactamase, the fluorescein moiety of CCF2 is enzymatically cleaved, resulting in the emission wavelength shifting to 447 nm (blue). β-Lactamase activity is quantified by measuring the ratio of blue fluorescence to green fluorescence.
The cell-penetrating and endosomal escape ability of FPP1.1 (SEQ ID NO:39) and sequence variant SpyC-BLA/CCP-SpyT conjugates was assessed by flow cytometry to determine cytosolic CCF2-AM cleavage by internalized β-Lactamase. […]

| Sequence | delivery of EGFRAffbd_Boug_SpyC toxin, cell viability [1] | delivery of BLA to the cytosol (CHO-K1 cells) |
| --- | --- | --- |
| KTQEKKKKQPPKPKKPKTQEKKKKQPPKPKR (Amino acid sequence of a Sindbis virus capsid-derived CPP (del1746)) [FPP1-del] | significantly improved delivery compared to RBD alone but retains RBD encoded specificity | – |
| PKKPKTQEKKKKQPPK (Amino acid sequence of a Sindbis virus capsid-derived CPP (SAR1)) [FPP1-SAR1] | – | ineffective in delivering BLA |
